# What was measured:
# Assay in all cases: relative viability (nuclei count vs DMSO), 5 days (fraction); higher = more cells survive
# [1] = system: A549
# How it was run: (§1)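 Five library-drug doses in √10 steps were combined with a fixed anchor-drug dose, or a single drug was given alone, by pin tool to lung cancer cell lines in 1536-well plates the day after seeding. Nuclei were stained and counted after 5 days. Relative viability is the nuclei count in treated wells over that in vehicle wells, taken as the median of duplicate plates.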
# [2] = system: Calu-6
# How it was run: as §1
# [3] = system: EBC-1
# How it was run: as §1
# [4] = system: IA-LM
# How it was run: as §1
# [5] = system: NCI-H1299
# How it was run: as §1
# [6] = system: NCI-H1648
# How it was run: as §1
# [7] = system: NCI-H1703
# How it was run: as §1
# [8] = system: NCI-H2342
# How it was run: as §1
# [9] = system: NCI-H522
# How it was run: as §1
# [10] = system: SW 900
# How it was run: as §1
# [11] = system: NCI-H1563
# How it was run: as §1
# [12] = system: NCI-H1623
# How it was run: as §1
smiles,measurement,setting,value
O=C(O)CCCCC(CCSCc1ccccc1)SCc1ccccc1 (configuration not stated) [CPI-613] + O=C(c1cc(Cc2n[nH]c(=O)c3ccccc23)ccc1F)N1CCN(C(=O)C2CC2)CC1 [Olaparib] (partner 8 µM),relative viability,[1]; first compound 5 µM,0.301
same,relative viability,[1]; first compound 15.81 µM,0.371
same,relative viability,[1]; first compound 50 µM,0.301
same,relative viability,[1]; first compound 158.11 µM,0.335
same,relative viability,[1]; first compound 500 µM,0.327
same,relative viability,[2]; first compound 5 µM,0.525
same,relative viability,[2]; first compound 50 µM,0.521
same,relative viability,[2]; first compound 158.11 µM,0.433
same,relative viability,[2]; first compound 500 µM,0.401
same,relative viability,[3]; first compound 5 µM,0.698
same,relative viability,[3]; first compound 15.81 µM,0.33
same,relative viability,[3]; first compound 50 µM,0.589
same,relative viability,[3]; first compound 158.11 µM,0.512
same,relative viability,[3]; first compound 500 µM,0.49
same,relative viability,[4]; first compound 5 µM,0.881
same,relative viability,[4]; first compound 15.81 µM,0.751
same,relative viability,[4]; first compound 50 µM,0.866
same,relative viability,[4]; first compound 158.11 µM,0.537
same,relative viability,[4]; first compound 500 µM,0.656
same,relative viability,[5]; first compound 5 µM,0.942
same,relative viability,[5]; first compound 15.81 µM,1.01
same,relative viability,[5]; first compound 50 µM,0.903
same,relative viability,[5]; first compound 158.11 µM,0.909
same,relative viability,[5]; first compound 500 µM,0.968
same,relative viability,[6]; first compound 5 µM,0.878
same,relative viability,[6]; first compound 15.81 µM,0.976
same,relative viability,[6]; first compound 50 µM,1.01
same,relative viability,[6]; first compound 158.11 µM,0.255
same,relative viability,[6]; first compound 500 µM,0.0437
same,relative viability,[7]; first compound 5 µM,0.411
same,relative viability,[7]; first compound 15.81 µM,0.453
same,relative viability,[7]; first compound 50 µM,0.499
same,relative viability,[7]; first compound 158.11 µM,0.36
same,relative viability,[7]; first compound 500 µM,0.403
same,relative viability,[8]; first compound 5 µM,0.472
same,relative viability,[8]; first compound 15.81 µM,0.432
same,relative viability,[8]; first compound 50 µM,0.5
same,relative viability,[8]; first compound 158.11 µM,0.461
same,relative viability,[8]; first compound 500 µM,0.412
same,relative viability,[9]; first compound 5 µM,0.589
same,relative viability,[9]; first compound 15.81 µM,0.533
same,relative viability,[9]; first compound 50 µM,0.681
same,relative viability,[9]; first compound 158.11 µM,0.453
same,relative viability,[9]; first compound 500 µM,0.346
same,relative viability,[10]; first compound 5 µM,0.873
same,relative viability,[10]; first compound 50 µM,0.823
same,relative viability,[10]; first compound 158.11 µM,0.33
same,relative viability,[10]; first compound 500 µM,0.0124
Cc1cnc(-c2cnc(NCCNc3ccc(C#N)cn3)nc2-c2ccc(Cl)cc2Cl)[nH]1 + O=C(c1cc(Cc2n[nH]c(=O)c3ccccc23)ccc1F)N1CCN(C(=O)C2CC2)CC1 [Olaparib] (partner 8 µM),relative viability,[1]; first compound 0.08 µM,0.233
same,relative viability,[1]; first compound 0.253 µM,0.264
same,relative viability,[1]; first compound 0.8 µM,0.288
same,relative viability,[1]; first compound 2.53 µM,0.3
same,relative viability,[2]; first compound 0.08 µM,0.532
same,relative viability,[2]; first compound 0.253 µM,0.547
same,relative viability,[2]; first compound 2.53 µM,0.468
same,relative viability,[3]; first compound 0.08 µM,0.619
same,relative viability,[3]; first compound 0.253 µM,0.608
same,relative viability,[3]; first compound 0.8 µM,0.673
same,relative viability,[3]; first compound 2.53 µM,0.9
same,relative viability,[4]; first compound 0.08 µM,0.77
same,relative viability,[4]; first compound 0.253 µM,0.766
same,relative viability,[4]; first compound 0.8 µM,0.87
same,relative viability,[4]; first compound 2.53 µM,0.709
same,relative viability,[5]; first compound 0.08 µM,0.953
same,relative viability,[5]; first compound 0.253 µM,0.957
same,relative viability,[5]; first compound 0.8 µM,0.968
same,relative viability,[5]; first compound 2.53 µM,0.856
same,relative viability,[6]; first compound 0.08 µM,0.723
same,relative viability,[6]; first compound 0.253 µM,0.761
same,relative viability,[6]; first compound 0.8 µM,1.2
same,relative viability,[6]; first compound 2.53 µM,0.865
same,relative viability,[7]; first compound 0.08 µM,0.48
same,relative viability,[7]; first compound 0.253 µM,0.378
same,relative viability,[7]; first compound 0.8 µM,0.448
same,relative viability,[7]; first compound 2.53 µM,0.486
same,relative viability,[8]; first compound 0.08 µM,0.438
same,relative viability,[8]; first compound 0.253 µM,0.387
same,relative viability,[8]; first compound 0.8 µM,0.43
same,relative viability,[8]; first compound 2.53 µM,0.439
same,relative viability,[9]; first compound 0.08 µM,0.641
same,relative viability,[9]; first compound 0.253 µM,0.668
same,relative viability,[9]; first compound 0.8 µM,0.681
same,relative viability,[9]; first compound 2.53 µM,0.643
same,relative viability,[10]; first compound 0.08 µM,0.827
same,relative viability,[10]; first compound 0.253 µM,0.913
same,relative viability,[10]; first compound 0.8 µM,0.848
same,relative viability,[10]; first compound 2.53 µM,0.561
Cc1cnc(-c2cnc(NCCNc3ccc(C#N)cn3)nc2-c2ccc(Cl)cc2Cl)[nH]1 + Cc1nc(Nc2ncc(C(=O)Nc3c(C)cccc3Cl)s2)cc(N2CCN(CCO)CC2)n1 [Dasatinib] (partner 0.075 µM),relative viability,[11]; first compound 0.08 µM,0.439
same,relative viability,[11]; first compound 0.253 µM,0.471
same,relative viability,[11]; first compound 0.8 µM,0.51
same,relative viability,[11]; first compound 2.53 µM,0.429
same,relative viability,[12]; first compound 0.08 µM,0.5
same,relative viability,[12]; first compound 0.253 µM,0.536
same,relative viability,[12]; first compound 0.8 µM,0.472
same,relative viability,[12]; first compound 2.53 µM,0.516
same,relative viability,[8]; first compound 0.08 µM,0.325
same,relative viability,[8]; first compound 0.253 µM,0.321
same,relative viability,[8]; first compound 0.8 µM,0.301
same,relative viability,[8]; first compound 2.53 µM,0.278
same,relative viability,[9]; first compound 0.08 µM,0.845
same,relative viability,[9]; first compound 0.253 µM,0.996
same,relative viability,[9]; first compound 0.8 µM,0.737
same,relative viability,[9]; first compound 2.53 µM,0.844
same,relative viability,[10]; first compound 0.08 µM,0.64
same,relative viability,[10]; first compound 0.253 µM,0.425
same,relative viability,[10]; first compound 0.8 µM,0.343
same,relative viability,[10]; first compound 2.53 µM,0.404

# — the supplement of paper PMC10307832
